Data published in patent US9963712B2, “Gene IbENOD93 and transgenic plants using the same” (Korea University Research and Business Foundation, priority 2014, dated 2018).

Key:
IbENOD93 gene = assay: Regulation of IbENOD93 expression by plant hormone treatment (real-time PCR); assay type: in vivo, sweet potato; conditions: 3 hours, fibrous roots of single-leaf plantlets, 25° C., dark
Description: To determine the transcriptional regulation of IbENOD93 gene by treatment with auxin (Indole-3-acetic acid; IAA), jasmonic acid (JA), and […] (6-benzylaminopurine; BA), real-time PCR (RT-PCR) was performed using IbENOD93-specific primers (IbENOD93(360)F 5′-[…]-3′ (SEQ ID. NO.: 9) and IbENOD93(512)R 5′-[…]-3′ (SEQ ID. NO.: 10)).
The roots of sweet potato were treated with hormones according to the following method. Sweet potato plantlets bearing a single leaf and petiole were collected from sweet potato plants and incubated in flasks filled with water for 3 weeks. After fibrous roots had developed from the distal end of the petiole, the single-leaf plantlets were incubated in various concentrations of IAA, JA, and BA solutions (0, 50, 100, 200, 500, 1000 μM) at 25° C. in the dark for 3 hours. After the hormone treatment, total RNA was extracted from the fibrous roots using the RNeasy Plant Mini Kit™ (Qiagen) and used for RT-PCR.
Total RNA (5 μg) was used for first-strand cDNA synthesis using the SuperScript III first-strand cDNA synthesis kit (Invitrogen). The resulting cDNA solution was then diluted with 30 μl of TE and used for PCR. Among a total of 20 μl, 1 μl of the synthesized cDNA was used for the RT-PCR, and KAPA SYBR FAST Master mix (KAPABIOSYSTEMS) was used for a final reaction volume of 16 μl. Real-time PCR analysis was performed using the LightCycler 480 quantification system (Roche Diagnostics) according to the manufacturer's instructions. Expression levels were normalized with β-tubulin expression amplified with 5′-[…]-3′ (SEQ ID. NO.: 11) and 5′-[…]-3′ (SEQ ID. NO.: 12) primers. Real-time PCR was performed starting with pre-denaturation at 95° C. for 10 minutes, followed by 45 cycles of denaturation at 95° C. for 10 seconds, annealing at 58° C. for 10 seconds, and extension at 72° C. for 20 seconds. Following the amplification phase, a melting curve analysis was conducted from 65° C. to 97° C. The second derivative maximum method in the LightCycler 480 quantification software (Roche Diagnostics) was used to evaluate the data.

[1] = tested on: MADS-box genes (SRD1, IbMADS1); conditions: upon IAA or JA treatment; Noh et al. 2010, Ku et al. 2008; cited from earlier work

Structure (SMILES)	transcript level of IbENOD93 (IbENOD93 gene; BA at 100 μM or higher)	transcript level of IbENOD93 (IbENOD93 gene; 500 μM IAA)	transcript level of MADS-box genes (SRD1, IbMADS1) [1]	transcript level of IbENOD93 (IbENOD93 gene; 200 μM JA)
c1ccc(CNc2ncnc3nc[nH]c23)cc1 [BA, 6-benzylaminopurine]	increased slightly			
O=C(O)Cc1c[nH]c2ccccc12 [IAA, Indole-3-acetic acid]		increased sharply	increased sharply	
CC/C=C\C[C@H]1C(=O)CC[C@@H]1CC(=O)O [JA, jasmonic acid]			increased sharply	increased sharply
